Assay results reported in patent US20260365655A1, “NEW USE OF JANUS KINASE (JAK)-DEGRADING AGENT BASED ON PROTEOLYSIS TARGETING CHIMERA (PROTAC)” (SHANGHAI SKIN DISEASE HOSPITAL, priority 2022, published 2026).
Values joined by “and” are separate entries in the source; they are usually repeats but may differ in a detail not shown here. Equal entries are not always repeated.

Assays:
[1] = test system: mouse ear eczema model (spleen); assay: Mouse ear eczema model: body weight, spleen weight and spleen index; type: in vivo, BALB/c mice; details: for Ranking in terms of spleen weight and spleen index: AD model, positive drug, Compound 1 and Compound 2 groups; for Therapeutic effect for AD / Therapeutic effect versus the positive drug: atopic dermatitis mouse models; for Therapeutic effect versus the positive drug: positive drug = 0.050% dexamethasone acetate cream; for Spleen weights and spleen indexes versus blank control group: compared with the blank control group; for Spleen weight, mean value: group mean; for Spleen weight, mean value / Spleen weight: day 11, wet weight; for Spleen weight: individual mice
From the text: (§1) (1) Preparation method of a JAK-PROTAC cream: the same as in Example 1.
(§2) (2) Positive therapeutic drug: a 0.050% dexamethasone acetate cream (manufacturer: Shanghai Skin Disease Hospital).
(§3) (3) Blank matrix: a matrix component produced after the active ingredient JAK-PROTAC was removed from the cream.
(§4) (4) Molding agent: solution of calcipotriol in ethanol (manufacturer: MACKLIN).
(§5) (1) The mice were randomly divided into a blank control group (6 mice) (Control), a model group (6 mice) (Model), a positive drug group (6 mice) (Positive), a Compound 1-treating group (0.15% JAK-PROTAC cream 1 for external use) (6 mice) (Treat 1), and a Compound 2-treating group (0.15% JAK-PROTAC cream 2 for external use) (6 mice) (Treat 2).
(§6) (2) Molding was conducted in the following manner:
(§7) A. On day 0 to day 7 of the modeling: At 9 a.m., the blank control group was administered with the cream matrix, the model group was administered with the molding agent, the positive group was administered with the molding agent, the Compound 1-treating group was administered with the molding agent, and the Compound 2-treating group was administered with the molding agent. At 5 p.m., the blank control group was not treated, the model group was administered with the cream matrix, the positive group was administered with the dexamethasone acetate cream, the Compound 1-treating group was administered with the JAK-PROTAC cream 1, and the Compound 2-treating group was administered with the JAK-PROTAC cream 2.
as §7, with “B.” for “A.”, “8” for “0”, “10” for “7”, “modeling, at” for “modeling: At”, “not treated,” for “administered with the molding agent,”, “not treated.” for “administered with the molding agent.”
(§8) C. On day 11 of the modeling: At 9 a.m., the blank control group was administered with the cream matrix, the model group was not treated, the positive group was not treated, the Compound 1-treating group was not treated, and the Compound 2-treating group was not treated. At 1 p.m., the mice were sacrificed through cervical dislocation, and the spleen and two ears of each mouse were collected.
(3) Spleen index testing:
After the mice were sacrificed, a spleen tissue was collected, dried with a filter paper to remove blood stains on a surface, and weighed for a wet weight. A spleen index was calculated as follows: spleen index=10,000×spleen weight (g)/body weight (g).
(2) A body weight and thicknesses of two ears of each mouse were recorded daily.
(3) After the experiment was completed, a spleen index of each mouse was calculated.
(§9) The data of the present disclosure was processed with the Excel and GraphPad software. The experimental data was tested by one-way ANOVA. The post-hoc multiple comparison was conducted with the least significant difference (LSD). P<0.05 indicated a significant difference.

[2] = test system: serum thymic stromal lymphopoietin (TSLP); assay: Mouse ear eczema model: serum TSLP by enzyme-linked immunosorbent assay; type: in vivo, BALB/c mice; details: for Serum TSLP content versus blank group: compared with the blank group; for Serum TSLP content versus model group: compared with the model group; for Reduction level of serum TSLP content versus positive group: compared with the positive group (dexamethasone acetate cream)
From the text: as §1, §2, §3, §4, §5, §6, §7
as §7, with “B.” for “A.”, “8” for “0”, “10” for “7”, “modeling, at” for “modeling: At”, “not treated,” for “administered with the molding agent,”, “not treated.” for “administered with the molding agent.”
as §8
(4) The TSLP content in serum was detected by enzyme-linked immunosorbent assay.
as §9

[3] = test system: RAW 264.7 cells; assay: NO content assay in LPS+IFN-γ induced RAW 264.7 macrophage inflammatory model; type: cell-based; details: for NO level versus LPS+IFN-γ model group: 0.05, 0.1, 0.2 g/mL (so in the source), 0.4 and 0.8 μg/mL, 24 h, LPS 0.5 μg/mL + IFN-γ 2 ng/mL; for Inhibition of inflammation: concentration range of 0.05 μg/mL to 0.8 μg/mL; for Concentration of optimal anti-inflammatory effect: tested 0.05 μg/mL to 0.8 μg/mL
Protocol: (1) Reagents: compound 1: a compound shown by Compound 1 in formula (I); compound 2: a compound shown by Compound 2 in Formula (I); DMEM high-glucose medium: Wuhan Pricella Biotechnology Co., Ltd.; South American FBS and trypsin: Gibco, USA; penicillin-streptomycin: Hyclone, USA; and nitric oxide (NO) assay kit: Beyotime.
(2) Instruments: CO2 incubator: HERA cell 240; and microplate reader: Thermo Fisher Scientific, USA.
Induction of an RAW 264.7 macrophage inflammatory model with lipopolysaccharide (LPS) and interferon-gamma (IFN-γ): RAW 264.7 cells in a logarithmic growth phase were taken and inoculated in a 96-well cell culture plate at 20×10^3 cells/well, and cultured for 24 h until the cells were adherent. Ablank control group of 0 μg/mL, a model group of 0.5 μg/mL LPS+2 ng/mL IFN-γ, and experimental groups of compounds 1 and 2 at concentrations of 0.05 μg/mL, 0.1 μg/mL, 0.2 μg/mL, 0.4 μg/mL, and 0.8 μg/mL were set. Three replicate wells were set for each group. In the blank control group, cells were incubated with serum-free DMEM. In the LPS+IFN-γ model group, cells were incubated with serum-free DMEM. After 24 h of incubation, morphological changes of cells were observed, and a concentration of NO was determined according to instructions of the NO assay kit.
The data of the present disclosure was processed with the Excel and Graphpad software. The experimental data were tested by one-way ANOVA. The post-hoc multiple comparison was conducted with the LSD. P<0.05 indicated a significant difference.

SMILES	Ranking in terms of spleen weight and spleen index [1]	Therapeutic effect for AD [1]	Therapeutic effect versus the positive drug [1]	Spleen weights and spleen indexes versus blank control group [1]	Spleen weight, mean value [1] [g]	Spleen weight [1]	Serum TSLP content versus blank group [2]	Serum TSLP content versus model group [2]	Reduction level of serum TSLP content versus positive group [2]	NO level versus LPS+IFN-γ model group [3]	Inhibition of inflammation [3]	Concentration of optimal anti-inflammatory effect [3] [µg/mL]
N#CC[C@H](C1CCCC1)n1cc(-c2nc(Nc3ccc(C(=O)NCCCCNc4cccc5c4C(=O)N(C4CCC(=O)NC4=O)C5=O)cc3)nc3[nH]ccc23)cn1 (stereo partly drawn) [Compound 1]	the Compound 1-treating group>the Compound 2-treating group>the positive drug group>the AD model group (P<0.05)	had a therapeutic effect for AD, could improve the inflammatory responses in atopic dermatitis mouse models	exhibited a better therapeutic effect than the positive drug	significantly reduced (P<0.05)	0.0862	0.0798 g and 0.0934 g and 0.0855 g	increased compared with the blank group (P<0.01)	significantly reduced compared with the model group (P<0.01)	greater than a reduction level of a TSLP content in the positive group (P<0.01)	reduced	could effectively inhibit the inflammation	0.4
CCS(=O)(=O)N1CC(CC#N)(n2cc(-c3nc(Nc4ccc(C(=O)NCCCCNc5cccc6c5C(=O)N(C5CCC(=O)NC5=O)C6=O)cc4)nc4[nH]ccc34)cn2)C1 (stereo not drawn) [Compound 2]	the Compound 1-treating group>the Compound 2-treating group>the positive drug group>the AD model group (P<0.05)	had a therapeutic effect for AD, could improve the inflammatory responses in atopic dermatitis mouse models	exhibited a better therapeutic effect than the positive drug	significantly reduced (P<0.05)	0.0732	0.0749 g and 0.0739 g and 0.0708 g	increased compared with the blank group (P<0.01)	significantly reduced compared with the model group (P<0.01)	greater than a reduction level of a TSLP content in the positive group (P<0.01)	reduced	could effectively inhibit the inflammation	0.4
